# Assays:
# [1] = target: T1, Recombinant STAT6 protein (STAT6(W123-T658)) (Homo sapiens, UniProt P42226); assay: STAT6 Fluorescence Polarization (FP) Assay; assay type: binding; conditions: STAT6(W123-T658) 250 nM, probe 5-FAM-ApYKPFQDLI-NH2 2 nM, 45-minute incubation
# T1 construct: STAT6(W123-T658)
# T1 sequence (P42226 123-658): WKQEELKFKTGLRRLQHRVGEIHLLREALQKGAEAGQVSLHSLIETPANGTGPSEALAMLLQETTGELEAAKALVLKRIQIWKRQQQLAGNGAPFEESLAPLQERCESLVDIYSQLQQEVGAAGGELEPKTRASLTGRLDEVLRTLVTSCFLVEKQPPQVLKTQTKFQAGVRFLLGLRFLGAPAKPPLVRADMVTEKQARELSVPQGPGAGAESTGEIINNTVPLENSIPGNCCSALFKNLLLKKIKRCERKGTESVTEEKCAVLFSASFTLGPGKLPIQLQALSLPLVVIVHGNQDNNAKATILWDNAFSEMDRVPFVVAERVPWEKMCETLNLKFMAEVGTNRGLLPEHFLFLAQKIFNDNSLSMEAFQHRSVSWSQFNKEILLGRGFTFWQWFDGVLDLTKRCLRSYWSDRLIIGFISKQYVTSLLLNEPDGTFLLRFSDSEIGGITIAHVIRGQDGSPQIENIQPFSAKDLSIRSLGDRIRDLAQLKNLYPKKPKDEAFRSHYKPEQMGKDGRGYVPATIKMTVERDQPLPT
# Procedure, shortened: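 Competitive displacement of a fluorescent phosphotyrosine peptide (2 nM) from recombinant STAT6 W123-T658 (250 nM), 45 min at room temperature in 10 mM HEPES pH 7.4, 50 mM NaCl, 2 mM DTT. mP fitted against log compound for IC50, grouped A (≤300 nM) to D (>30 μM).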
# [2] = target: T2, Recombinant STAT3 protein (STAT3(G127-I722)) (Homo sapiens, UniProt P40763); assay: STAT3 Fluorescence Polarization (FP) Assay; assay type: binding; conditions: STAT3(G127-I722) 25 nM, probe 5-FAM-GpYLPQTV-NH2 2 nM, 45-minute incubation
# T2 construct: STAT3(G127-I722)
# T2 sequence (P40763 127-722, species assumed): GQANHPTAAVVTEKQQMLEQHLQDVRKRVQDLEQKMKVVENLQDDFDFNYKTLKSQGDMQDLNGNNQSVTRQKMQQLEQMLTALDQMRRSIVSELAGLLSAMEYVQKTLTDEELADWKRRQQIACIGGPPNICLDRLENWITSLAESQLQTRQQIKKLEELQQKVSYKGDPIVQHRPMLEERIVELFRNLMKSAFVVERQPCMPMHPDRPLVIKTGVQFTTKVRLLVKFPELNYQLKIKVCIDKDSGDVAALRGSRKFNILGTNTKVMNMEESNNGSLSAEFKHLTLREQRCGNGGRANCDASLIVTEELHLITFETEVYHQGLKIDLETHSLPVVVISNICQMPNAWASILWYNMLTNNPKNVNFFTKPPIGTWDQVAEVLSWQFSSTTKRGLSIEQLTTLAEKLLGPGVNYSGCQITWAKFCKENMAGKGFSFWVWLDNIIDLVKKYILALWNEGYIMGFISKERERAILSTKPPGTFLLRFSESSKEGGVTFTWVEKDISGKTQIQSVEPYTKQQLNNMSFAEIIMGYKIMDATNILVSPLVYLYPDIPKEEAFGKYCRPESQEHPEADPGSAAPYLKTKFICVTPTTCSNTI
# Procedure, shortened: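 Serially diluted compounds (1% DMSO) were mixed with 2 nM fluorescent phosphotyrosine peptide and 25 nM STAT3 construct G127-I722, pH 7.4, incubated 45 min at room temperature. IC50 values from fitted polarization curves are reported as categories A (≤100 nM), B, C, D (>10 μM).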
SMILES,IC50 [1] [µM],IC50 [2] [µM]
"O=C(N[C@H]1C[C@@H]2C[C@@H]2C[C@H]2CC[C@@H](C(=O)N3CC(c4nccs4)C3)N2C1=O)c1cc2cc(C(F)(F)P(=O)(O)O)ccc2s1 [Example 286, (difluoro(2-(((3S,6S,7aS,8aR,9aR)-5-oxo-3-(3-(thiazol-2-yl)azetidine-1-carbonyl)decahydro-1H-cyclopropa[d]pyrrolo[1,2-a]azocin-6-yl)carbamoyl)benzo[b]thiophen-5-yl)methyl)phosphonic acid]",3 to 30,< 0.1
"O=C(N[C@H]1C[C@@H]2C[C@@H]2C[C@H]2CC[C@@H](C(=O)N3CC(c4cn[nH]c4)C3)N2C1=O)c1cc2cc(C(F)(F)P(=O)(O)O)ccc2s1 [Example 288, ((2-(((3S,6S,7aS,8aR,9aR)-3-(3-(1H-pyrazol-4-yl)azetidine-1-carbonyl)-5-oxodecahydro-1H-cyclopropa[d]pyrrolo[1,2-a]azocin-6-yl)carbamoyl)benzo[b]thiophen-5-yl)difluoromethyl)phosphonic acid]",3 to 30,< 0.1
"CC(=O)N1CC[C@@H]2[C@H]1CN2C(=O)[C@@H]1CC[C@@H]2C[C@H]3C[C@H]3C[C@H](NC(=O)c3cc4cc(C(F)P(=O)(O)O)ccc4s3)C(=O)N21 (stereo partly drawn) [Example 290, ((2-(((3S,6S,7aS,8aR,9aR)-3-((1R,5R)-2-acetyl-2,6-diazabicyclo[3.2.0]heptane-6-carbonyl)-5-oxodecahydro-1H-cyclopropa[d]pyrrolo[1,2-a]azocin-6-yl)carbamoyl)benzo[b]thiophen-5-yl)fluoromethyl)phosphonic acid]",3 to 30,0.1 to 1
"O=C(N[C@H]1C[C@H]2C[C@H]2C[C@H]2CC[C@@H](C(=O)N3CC(c4cnccc4O)C3)N2C1=O)c1cc2cc(CP(=O)(O)O)ccc2s1 [Example 294, ((2-(((3S,6S,7aR,8aS,9aR)-3-(3-(4-hydroxypyridin-3-yl)azetidine-1-carbonyl)-5-oxodecahydro-1H-cyclopropa[d]pyrrolo[1,2-a]azocin-6-yl)carbamoyl)benzo[b]thiophen-5-yl)methyl)phosphonic acid]",3 to 30,< 0.1
"O=C(N[C@H]1C[C@@H]2C[C@@H]2C[C@H]2CC[C@@H](C(=O)N3CC(N4CCS(=O)(=O)CC4)C3)N2C1=O)c1cc2cc(C(F)P(=O)(O)O)ccc2s1 (stereo partly drawn) [Example 301, ((2-(((3S,6S,7aS,8aR,9aR)-3-(3-(1,1-dioxidothiomorpholino)azetidine-1-carbonyl)-5-oxodecahydro-1H-cyclopropa[d]pyrrolo[1,2-a]azocin-6-yl)carbamoyl)benzo[b]thiophen-5-yl)fluoromethyl)phosphonic acid]",3 to 30,0.1 to 1
O=C(N[C@H]1C[C@H]2C[C@H]2C[C@H]2CC[C@@H](C(=O)N3CC(N4CCS(=O)(=O)CC4)C3)N2C1=O)c1cc2cc(C(F)P(=O)(O)O)ccc2s1 (stereo partly shown) [Example 302],3 to 30,0.1 to 1
"Cn1cnnc1C1CN(C(=O)[C@@H]2CC[C@@H]3C[C@H]4C[C@H]4C[C@H](NC(=O)c4cc5cc(C(F)P(=O)(O)O)ccc5s4)C(=O)N32)C1 (stereo partly drawn) [Example 304, (fluoro(2-(((3S,6S,7aS,8aR,9aR)-3-(3-(4-methyl-4H-1,2,4-triazol-3-yl)azetidine-1-carbonyl)-5-oxodecahydro-1H-cyclopropa[d]pyrrolo[1,2-a]azocin-6-yl)carbamoyl)benzo[b]thiophen-5-yl)methyl)phosphonic acid]",3 to 30,< 0.1
"O=C(N[C@H]1C[C@@H]2C[C@@H]2C[C@H]2CC[C@@H](C(=O)N3CC(c4ncccn4)C3)N2C1=O)c1cc2cc(C(F)P(=O)(O)O)ccc2s1 (stereo partly drawn) [Example 305, (fluoro(2-(((3S,6S,7aS,8aR,9aR)-5-oxo-3-(3-(pyrimidin-2-yl)azetidine-1-carbonyl)decahydro-1H-cyclopropa[d]pyrrolo[1,2-a]azocin-6-yl)carbamoyl)benzo[b]thiophen-5-yl)methyl)phosphonic acid]",3 to 30,0.1 to 1
"O=C(N[C@H]1C[C@@H]2C[C@@H]2C[C@H]2CC[C@@H](C(=O)N3CC(c4ccon4)C3)N2C1=O)c1cc2cc(C(F)P(=O)(O)O)ccc2s1 (stereo partly drawn) [Example 312, (fluoro(2-(((3S,6S,7aS,8aR,9aR)-3-(3-(isoxazol-3-yl)azetidine-1-carbonyl)-5-oxodecahydro-1H-cyclopropa[d]pyrrolo[1,2-a]azocin-6-yl)carbamoyl)benzo[b]thiophen-5-yl)methyl)phosphonic acid]",3 to 30,< 0.1

# More lines, now with the values ahead:
IC50 [1] [µM],IC50 [2] [µM],SMILES
3 to 30,< 0.1,"Cc1ccncc1C1CN(C(=O)[C@@H]2CC[C@@H]3C[C@H]4C[C@H]4C[C@H](NC(=O)c4cc5cc(C(F)P(=O)(O)O)ccc5s4)C(=O)N32)C1 (stereo partly drawn) [Example 280, (fluoro(2-(((3S,6S,7aS,8aR,9aR)-3-(3-(4-methylpyridin-3-yl)azetidine-1-carbonyl)-5-oxodecahydro-1H-cyclopropa[d]pyrrolo[1,2-a]azocin-6-yl)carbamoyl)benzo[b]thiophen-5-yl)methyl)phosphonic acid]"
3 to 30,< 0.1,"Cn1cc(C2CN(C(=O)[C@@H]3CC[C@@H]4C[C@H]5C[C@H]5C[C@H](NC(=O)c5cc6cc(C(F)(F)P(=O)(O)O)ccc6s5)C(=O)N43)C2)cn1 [Example 282, (difluoro(2-(((3S,6S,7aS,8aR,9aR)-3-(3-(1-methyl-1H-pyrazol-4-yl)azetidine-1-carbonyl)-5-oxodecahydro-1H-cyclopropa[d]pyrrolo[1,2-a]azocin-6-yl)carbamoyl)benzo[b]thiophen-5-yl)methyl)phosphonic acid]"
0.3 to 3,< 0.1,"O=C(N[C@H]1C[C@H]2C[C@H]2C[C@H]2CC[C@@H](C(=O)N3CC(c4cnccc4O)C3)N2C1=O)c1cc2cc(C(F)P(=O)(O)O)ccc2s1 (stereo partly drawn) [Example 293, (fluoro(2-(((3S,6S,7aR,8aS,9aR)-3-(3-(4-hydroxypyridin-3-yl)azetidine-1-carbonyl)-5-oxodecahydro-1H-cyclopropa[d]pyrrolo[1,2-a]azocin-6-yl)carbamoyl)benzo[b]thiophen-5-yl)methyl)phosphonic acid]"
0.3 to 3,< 0.1,"O=C(N[C@H]1C[C@@H]2C[C@@H]2C[C@H]2CC[C@@H](C(=O)N3C[C@H]4[C@@H]3CCN4c3cccnc3)N2C1=O)c1cc2cc(C(F)P(=O)(O)O)ccc2s1 (stereo partly drawn) [Example 295, (fluoro(2-(((3S,6S,7aS,8aR,9aR)-5-oxo-3-((1S,5S)-2-(pyridin-3-yl)-2,6-diazabicyclo[3.2.0]heptane-6-carbonyl)decahydro-1H-cyclopropa[d]pyrrolo[1,2-a]azocin-6-yl)carbamoyl)benzo[b]thiophen-5-yl)methyl)phosphonic acid]"
0.3 to 3,< 0.1,"O=C(N[C@H]1C[C@@H]2C[C@@H]2C[C@H]2CC[C@@H](C(=O)N3C[C@@H]4[C@H]3CCN4c3cccnc3)N2C1=O)c1cc2cc(C(F)P(=O)(O)O)ccc2s1 (stereo partly drawn) [Example 296, (fluoro(2-(((3S,6S,7aS,8aR,9aR)-5-oxo-3-((1R,5R)-2-(pyridin-3-yl)-2,6-diazabicyclo[3.2.0]heptane-6-carbonyl)decahydro-1H-cyclopropa[d]pyrrolo[1,2-a]azocin-6-yl)carbamoyl)benzo[b]thiophen-5-yl)methyl)phosphonic acid]"
0.3 to 3,< 0.1,"O=C(N[C@H]1C[C@@H]2C[C@@H]2C[C@H]2CC[C@@H](C(=O)N3CC(c4ccon4)C3)N2C1=O)c1cc2cc(C(F)(F)P(=O)(O)O)ccc2s1 [Example 299, (difluoro(2-(((3S,6S,7aS,8aR,9aR)-3-(3-(isoxazol-3-yl)azetidine-1-carbonyl)-5-oxodecahydro-1H-cyclopropa[d]pyrrolo[1,2-a]azocin-6-yl)carbamoyl)benzo[b]thiophen-5-yl)methyl)phosphonic acid]"
0.3 to 3,< 0.1,"O=C(N[C@H]1C[C@@H]2C[C@@H]2C[C@H]2CC[C@@H](C(=O)N3CC(c4ncco4)C3)N2C1=O)c1cc2cc(C(F)(F)P(=O)(O)O)ccc2s1 [Example 300, (difluoro(2-(((3S,6S,7aS,8aR,9aR)-3-(3-(oxazol-2-yl)azetidine-1-carbonyl)-5-oxodecahydro-1H-cyclopropa[d]pyrrolo[1,2-a]azocin-6-yl)carbamoyl)benzo[b]thiophen-5-yl)methyl)phosphonic acid]"
0.3 to 3,< 0.1,"O=C(N[C@H]1C[C@@H]2C[C@@H]2C[C@H]2CC[C@@H](C(=O)N3CC(c4cnccc4F)C3)N2C1=O)c1cc2cc(C(F)(F)P(=O)(O)O)ccc2s1 [Example 303, (difluoro(2-(((3S,6S,7aS,8aR,9aR)-3-(3-(4-fluoropyridin-3-yl)azetidine-1-carbonyl)-5-oxodecahydro-1H-cyclopropa[d]pyrrolo[1,2-a]azocin-6-yl)carbamoyl)benzo[b]thiophen-5-yl)methyl)phosphonic acid]"
